Series [1] deals with β-amyloid (AD brain homogenates) (Homo sapiens, UniProt P05067). Briefly: Competitive binding assay with [3H]PIB in AD brain homogenates. As to the method: Binding was assayed in 12×75 mm borosilicate glass tubes. […] The resulting mixture was incubated at 37° C. for 1 h, and the bound and free radioligands were separated by rapid vacuum filtration through Whatman GF/B glass filter paper using a Brandel M-24R cell harvest and rapidly washed three times at room temperature with PBS. The filters containing the bound radioactivity were transferred to special vials containing 3 ml of universal scintillation fluid. Vials were counted using Beckman LS6500 multi-purpose scintillation counter. Specific binding was estimated as the difference between total and nonspecific binding. Under the assay conditions, the specifically bound fraction was less than 15% of the total radioactivity. The results were subjected to nonlinear regression analysis using software GraphPad Prism by which Kd and Ki values were calculated.
Chain of β-amyloid (AD brain homogenates) (P05067 672-711 limits assumed): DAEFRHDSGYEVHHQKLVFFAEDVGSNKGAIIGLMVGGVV
The postmortem brain tissues were obtained from well-defined AD patients. The gray matter was then carefully separated from white matter at autopsy and kept in −70° C. The fresh frozen gray matter was then homogenized by milling it thoroughly in a mortar in the presence of liquid nitrogen. The homogenates were then prepared in phosphate-buffered saline (PBS, pH 7.4) at a concentration of approximately 400 mg tissue/ml, aliquoted into 1-ml portions, and stored
According to the in vitro binding assays, functional groups have moderate effects on the binding affinity. […] In addition, methylation of the amino group increased the binding affinity.

Series [2] is described as follows: Partition coefficient determination (n-octanol/PBS). The note with it: n-octanol / PBS 0.1 M pH 7.4, room temperature, triplicate. The series is classed as physicochemical. As to the method:
Partition coefficients were measured by mixing [^125I] 18 (10 μl, RCP>98%, approximately 50,0000 cpm) with sodium phosphate buffer (PBS, 3 g, 0.1 M, pH 7.4) and
n-octanol (3 g, 3.65 ml) in test tubes. The tubes were vortexed for 3 min (1 min 3×) at room temperature followed by centrifugation at 3500 rpm for 5 min. Then 1 ml of buffer and 1 ml of n-octanol were taken out, weighed, and counted. The partition coefficient was determined by calculating the ratio of cpm/g of n-octanol to that of PBS and expressed as logP oct=log [cpm/g (n-octanol)/cpm/g(PBS)]. Another 2 ml from the rest of n-octanol layer was taken out and repartitioned in a tube previously containing 3 g PBS and 1.65 ml of n-octanol until consistent partitions of the coefficient values were obtained. All assays were performed in triplicate.
Based on the conventional octanol-water partition measurement, the lipophilicity of [^125I] 18 was determined in terms of partition coefficients (logP oct). The logP oct of [^125I] 18 was found at 2.70 and the logP oct values of other dibenzothiazole derivatives were then estimated based on coefficients determined by Hansch and Leo (A substituent Constants for Correlation Analysis in Chemistry and Biology (1979) 1st ed.).

The nature of series [3]: Brain uptake in normal mice after iv injection. It counts as in vivo, mice (Swiss-Webster). The note with it: for Brain uptake in mice, 2 min. / Brain uptake in mice, 30 min. / Brain uptake in mice, 60 min.: n = 3, iv tail vein, 0.185 MBq; for Brain uptake in mice, 2 min.: 2 min postinjection; for Brain uptake in mice, 30 min.: 30 min postinjection; for Brain uptake in mice, 60 min.: 60 min postinjection. How it is done:
The radiolabeled ligand [^125I] 18 eluted from C-18 Sep-Pak™ plus cartridge was dissolved in a mixture consisting of saline (2 ml, 9 mg/ml), ethylene glycol (2 ml), ethanol (0.7 ml), and HCl (0.3 ml, […]). Under anesthesia, 0.1 ml of the above solution containing 0.185 MBq of radioactive tracer was administered to the mice through a tail vein injection (Swiss-Webster, n=3, 2 months old). The mice were then sacrificed by a heart puncture at 2, 30, and 60 min postinjection. The brain was rapidly removed, weighed, and counted. The uptake of brain was expressed as percentage of injection dose per gram.
For potential in vivo imaging studies, we radiolabeled compound […] with ^125I for brain uptake studies. Following a single iv injection of [^125I] 18 ([…], 0.185 MBq), the brain permeability was evaluated in normal mice. The brain radioactivity concentration of [^125I] 18 was determined at 2, 30, and 60 min postinjection. […] The initial brain uptake was 3.71±0.63% ID/g at 2 min postinjection, a level that is considered for potential clinical imaging studies. The brain radioactivity concentration decreased sharply to 0.78±0.14% ID/g at 30 min and 0.43±0.12% ID/g at 60 min, with a 2-to-30 min ratio of 5. […] 18 was just as low as it rapidly clears from the normal mouse brain in the absence of amyloid deposits.

The nature of series [4]: Storage stability of the radioligand. The series is classed as physicochemical. How it is done:
20-30% after HPLC purification. [^125I] 18 was obtained with a radiochemical purity over 98% and a specific activity near the theoretical limit (80 TBq/mmol) based on the no-carrier added sodium [^125I] iodide. The radiochemical identity of [^125I] 18 was verified by co-elution with the non-radioactive cold standard 18 on HPLC profiles. [^125I] 18 was stable enough to be kept for up to 8 h at room temperature and for up to 2 months in the refrigerator.

`CN(C)c1ccc(-c2nc3ccc(-c4nc5ccc(F)cc5s4)cc3s2)cc1` [Compound 17, [4-(6-fluoro-[2,60]dibenzothiazolyl-20-yl)-phenyl]-dimethylamine]: in series [1], the Ki – broadly, a dissociation constant, usually derived from enzyme kinetics or from competition with a known ligand – lay in the range of 6.8 to 36 nM.

For the molecule `Nc1ccc(-c2nc3ccc(-c4nc5ccccc5s4)cc3s2)cc1[125I]` [[^125I]18, 4-[2,6′]dibenzothiazolyl-2′-yl-2-^125I-phenylamine], the logP – broadly, a log measure of how a compound divides between an organic and an aqueous phase – in series [2] was found to be 2.7. Besides, the “2-to-30 min ratio of brain radioactivity concentration” value in series [3] (iv) is recorded as 5. Also, in series [3], the “Brain uptake in mice, 2 min.” value is 3.71 ± 0.63 % ID/g; the “Brain uptake in mice, 30 min.” value came to 0.78 ± 0.14 % ID/g; the “Brain uptake in mice, 60 min.” value came out at 0.43 ± 0.12 % ID/g. Also, in series [3] (listed as [^125I] 18), the “Brain uptake in mice, 2 min.” value is 3.71±0.63 % ID/g; the “Brain uptake in mice, 30 min.” value stood at 0.78±0.14 % ID/g; the “Brain uptake in mice, 60 min.” value came out at 0.43±0.12 % ID/g. Moreover, in series [4] (in the refrigerator), the “Stability, time it can be kept” value is recorded as “up to 2 months”. Also, the “Stability, time it can be kept” value in series [4] (room temperature) is given as “up to 8 h”.

On to `COc1ccc2nc(-c3ccc4nc(-c5ccc(N)cc5)sc4c3)sc2c1` [Compound 13], for which the Ki in series [1] was in the range of 6.8 to 36 nM.

In series [1], `Nc1ccc(-c2nc3ccc(-c4nc5ccccc5s4)cc3s2)cc1` [Compound 10] showed an inhibitory constant (Ki) of 6.8 to 36 nM.

For `Nc1ccc(-c2nc3ccc(-c4nc5ccc(Cl)cc5s4)cc3s2)cc1` [Compound 11], the Ki in series [1] lay in the range of 6.8 to 36 nM.

The molecule `CNc1ccc(-c2nc3ccc(-c4nc5ccc(F)cc5s4)cc3s2)cc1` [Compound 16, [4-(6-fluoro-[2,60]dibenzothiazolyl-20-yl)-phenyl]-methylamine] came in with a Ki in series [1] of 6.8 to 36 nM.

Turning to `Nc1ccc(-c2nc3ccc(-c4nc5ccccc5s4)cc3s2)cc1I` [Compound 18, 4-[2,6′]dibenzothiazolyl-2′-yl-2-iodo-phenylamine], the Ki in series [1] was in the range of 6.8 to 36 nM.

Take `CNc1ccc(-c2nc3ccc(-c4nc5ccc(Cl)cc5s4)cc3s2)cc1` [Compound 15]: in series [1], the Ki fell in the range of 6.8 to 36 nM.

Turning to `Nc1ccc(-c2nc3ccc(-c4nc5ccc(F)cc5s4)cc3s2)cc1` [Compound 12], in series [1], the Ki was in the range of 6.8 to 36 nM.

Molecule `CNc1ccc(-c2nc3ccc(-c4nc5ccccc5s4)cc3s2)cc1` [Compound 14] showed a Ki in series [1] of 6.8 to 36 nM.

For the origin of these results see patent publication US20090123373A1, “AMYLOID-IMAGING AGENTS” (priority 2007, published 2009).
